# Assays:
# [1] = tested on: canine peripheral blood mononuclear cells (cPBMCs); assay: Cytokine production in canine PBMCs by ELISA (Example 2); type: cell-based; details: ± SD, 20 μM, 29 hours, ELISA, triplicate
# Procedure: The imidazoquinolines were further screened for cytokine production in canine peripheral blood mononuclear cells (cPBMCs). […] TNFα and IL-12 were chosen as they are typically seen in a Th-1 cytokine response.
# Peripheral blood from a healthy canine donor was obtained with appropriate informed consent of the owner and under approved institutional guidelines. Blood (8 mL per tube) was drawn via sterile venipuncture into a BD Vacutainer cell preparation tube containing sodium heparin (BD Biosciences). PBMCs were isolated within one hour following procurement by density gradient centrifugation according to the manufacturer protocol and resuspended to 2.22×10^6 cells/mL in sterile RPMI 1640 medium with L-glutamine (Gibco) supplemented with 100 U/mL penicillin, 100 μg/mL streptomycin (Corning) and 10% (v/v) heat-inactivated Fetalgro (RMBIO). Corning 3917, 96-well tissue culture treated plates were seeded with the PBMC suspension (180 μL/well), 20 μL of the serially diluted TLR agonists were added in triplicate to yield the desired concentrations in a 1% (v/v) DMSO cell suspension. Cells were incubated at 37° C. in 5% CO2 for 9 hours (FIGS. 3A-3D) or 29 hours (Table 2) after which supernatants were removed and frozen at −80° C. Cytokine secretion levels were measured by ELISA (Duoset, R&D Systems) according to the manufacturer protocol. Samples and standards (n=3) were thawed and plated onto a Maxisorp flat-bottom, 384-well plate (Thermo Scientific) using a BioTek Precision XS pipetting system. Cytokine concentrations were determined by a hyperbolic or four-parameter logistic non-linear regression of the recombinant standards and subsequent interpolation using Graphpad Prism 7.0.
# human TLR7 (hTLR7) = molecular target: T1, human TLR7 (hTLR7) (Homo sapiens, UniProt Q9NYK1); assay: In vitro TLR7 activity assay (HEK-Blue hTLR7, QUANTI-Blue, Example 3); type: cell-based; details: 16 h incubation; Null 1-k subtracted
# T1 construct: host or cells: HEK-293 (HEK-Blue hTLR7)
# T1 sequence (Q9NYK1 27-1049): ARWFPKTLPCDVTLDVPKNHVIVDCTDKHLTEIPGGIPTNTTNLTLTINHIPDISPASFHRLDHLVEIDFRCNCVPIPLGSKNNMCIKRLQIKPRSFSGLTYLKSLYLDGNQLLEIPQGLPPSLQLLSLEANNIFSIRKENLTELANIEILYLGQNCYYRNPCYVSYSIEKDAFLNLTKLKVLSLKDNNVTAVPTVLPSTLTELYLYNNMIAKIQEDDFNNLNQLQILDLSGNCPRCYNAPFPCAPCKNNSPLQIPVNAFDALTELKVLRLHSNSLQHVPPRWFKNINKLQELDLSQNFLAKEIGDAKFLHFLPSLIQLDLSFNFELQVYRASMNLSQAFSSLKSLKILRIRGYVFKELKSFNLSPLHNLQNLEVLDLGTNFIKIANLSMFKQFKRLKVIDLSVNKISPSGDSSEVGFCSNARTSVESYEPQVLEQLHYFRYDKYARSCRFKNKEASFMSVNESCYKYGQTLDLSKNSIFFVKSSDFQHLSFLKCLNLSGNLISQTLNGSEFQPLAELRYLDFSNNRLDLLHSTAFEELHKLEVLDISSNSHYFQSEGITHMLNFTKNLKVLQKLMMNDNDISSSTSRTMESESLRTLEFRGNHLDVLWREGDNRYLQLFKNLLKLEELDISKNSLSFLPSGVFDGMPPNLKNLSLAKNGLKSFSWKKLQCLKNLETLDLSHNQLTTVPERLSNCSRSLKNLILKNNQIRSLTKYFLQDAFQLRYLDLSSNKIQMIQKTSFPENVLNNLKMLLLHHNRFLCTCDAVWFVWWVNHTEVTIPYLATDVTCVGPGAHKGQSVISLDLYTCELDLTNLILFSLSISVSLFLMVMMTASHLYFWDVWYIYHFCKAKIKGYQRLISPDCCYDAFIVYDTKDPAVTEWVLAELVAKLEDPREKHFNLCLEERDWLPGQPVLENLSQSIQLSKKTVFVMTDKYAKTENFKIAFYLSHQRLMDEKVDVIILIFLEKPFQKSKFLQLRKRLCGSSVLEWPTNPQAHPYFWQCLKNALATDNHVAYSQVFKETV
# Procedure: TLR agonist activity was measured in a dose-response study using reporter cell lines expressing the human TLR7 (hTLR7). […] The hTLR7 activity of R848-Toco, the formulation and its components were assessed using HEK-293 cells co-transfected with the hTLR7 gene and an inducible SEAP reporter gene along with the corresponding null control line (HEK-Blue™ hTLR7 and Null-1k cells, Invivogen). Cells were maintained in DMEM media with selective antibiotics according to the manufacturer protocol.^26 HEK-Blue™ cells were seeded into 96 well plates at a density of 220,000 cells/mL with 180 μL/well of culture medium. Stock solutions in DMSO were first serially diluted to seven concentrations (DMSO solutions further diluted into H2O). Each well was stimulated with 20 μL of agonists or agonist-free controls (equivalent concentration of HA-Toco, D-α-Tocopherol succinate, PBS or […] DMSO) at the determined final concentrations in 5 replicates. After 16 h of incubation at 37° C. in a 5% CO2 atmosphere, 20 μL of the supernatant from each well was sampled and spiked into 180 μL of QUANTI-Blue™ solution followed by incubation for 1 h at 37° C. Relative hTLR7 activity was then analyzed by UV-Vis at 637 nm using a microplate UV reader (SpectraMAX GeminiXS, Molecular Devices, San Jose, CA, USA). For each compound and concentration, a corresponding sample was applied to the HEK-Blue™ Null-1k cell line. The TLR7 agonist activity was determined after averaging across hTLR7 replications and subtracting the averaged Null response.
# Activation levels were calculated as the difference between the average readings of the hTLR7 cell line and the Null 1-k cell line, to account for non-hTLR7 related induction of NF-κB. […] Therefore, this study confirmed that R848-Toco, formulated with HA-Toco as an emulsion, maintained its TLR agonist activity. […]
compound,measurement,setting,value
"CCOCc1nc2c(N)nc3ccccc3c2n1CC(C)(C)O [Compound 2, resiquimod, reference compound]",Cytokine IFNg,[1],26 ± 7 pg/mL
same,Cytokine IL-2,[1],120 ± 12 pg/mL
same,Cytokine IL-6,[1],380 ± 80 pg/mL
same,Cytokine IL-10,[1],21 ± 2 pg/mL
same,Cytokine IL-12,[1],2800 ± 520 pg/mL
same,Cytokine TNFa,[1],190 ± 30 pg/mL
same,"hTLR7 activation (NF-κB, in words)",human TLR7 (hTLR7),strong dose-dependent activation

# Reference: patent US12295970B2, “Imidazoquinoline compounds and prodrugs thereof” (UNIVERSITY OF KANSAS, priority 2019, dated 2025)
